Results reported in patent US20090253633A1, “Novel Combinations of DNAK Inhibitors With Known Antibacterial Agents” (priority 2005, published 2009).
Bridges are numbered along the chain shown (N, C = ends). Roman numbers before positions name the chains, in order. [ ]: non-standard residue; d: D form. NMeR = CN[C@@H](CCCNC(=N)N)C(=O)O; Api = NC1(C(=O)O)CCNCC1; Dab = NCC[C@H](N)C(=O)O

Test system: E. coli isolate CHP-04-002EC
Assay: MIC against the E. coli test isolate
Type: cell-based
Conditions: stated as 1×MIC
Method: Growth inhibition assays were performed using the Gram negative E. coli isolate CHP-04-002EC obtained from Laboratory Specialists, Inc. (Westlake, Ohio). […] Untreated bacterial culture served as growth control. At 4, 8, 12 and 24 hrs post-application, the cultures were serially diluted, plated and allowed to grow overnight. Colony forming units (CFU) were determined by counting the number of newly grown colonies and multiplying by the dilution factor.

Substance “I: H-[Api]DKGSYLPRPTPPRPIYN[NMeR]N[Dab]-NH2 / II: H-[Api]DKGSYLPRPTPPRPIYN[NMeR]N (amide I:21-II:C) [CHP-105]” has an MIC of 64 µg/mL.
